Source: paper PMC7369637, “Inhibition of Resistance-Refractory P. falciparum Kinase PKG Delivers Prophylactic, Blood Stage, and Transmission-Blocking Antiplasmodial Activity” (Cell Chemical Biology, 2020)

Test system: metabolite levels in Pf trophozoites and schizonts
Experiment: Metabolomics (UHPLC-MS) of treated trophozoites and schizonts
Type: cell-based, Plasmodium falciparum
Conditions: trophozoites
Protocol: Metabolomics experiments were performed as described elsewhere ([Murithi et al., 2019]). […] Following several washes, metabolites were extracted by 90% methanol containing 0.5 μM ^13C^15N-labelled aspartate as an internal standard. Nitrogen-dried samples were stored at -80°C. Samples were resuspended in high-performance liquid chromatography (HPLC) grade water that contained 1 μM chlorpropamide as an internal standard. They were then analyzed by ultra-high-performance liquid chromatography mass spectrometry UHPLC-MS ([Allman et al., 2016]). Data analysis was performed using the el-MAVEN software and the Metaboanalyst package in R Studio ([Murithi et al., 2019]).

Compound: O=C1C(O)=C([C@H]2CC[C@H](c3ccc(Cl)cc3)CC2)C(=O)c2ccccc21 [ATQ, Atovaquone]
- Log2 fold change in 2-Hydroxy-2-methylbutanedioic acid level: -0.127
- Log2 fold change in 2_3-Diphosphoglyceric acid level: -0.381
- Log2 fold change in 3-phosphoglycerate level: -0.429
- Log2 fold change in 4-aminobutyrate level: 0.101
- Log2 fold change in 4-phosphopantothenate level: -0.459
- Log2 fold change in 6-phospho-D-gluconate level: -0.286
- Log2 fold change in ADP-D-glucose level: -0.046
- Log2 fold change in CDP level: -0.509
- Log2 fold change in CMP level: -0.007
- Log2 fold change in D-glucosamine-1/6-phosphate level: -0.044
- Log2 fold change in D-sedoheptulose-1/7-phosphate level: -0.528
- Log2 fold change in DL-Pipecolic Acid level: -0.217
- Log2 fold change in DLH level: 0.019
- Log2 fold change in DLS level: -0.123
- Log2 fold change in FAD level: -0.090
- Log2 fold change in FMN level: -0.124
- Log2 fold change in GDP level: 0.014
- Log2 fold change in GMP level: 0.614
- Log2 fold change in HVDD level: 0.032
- Log2 fold change in Hexose level: -0.376
- Log2 fold change in IMP level: 0.044
- Log2 fold change in N-Acetyl-L-alanine level: -0.316
- Log2 fold change in N-acetyl-L-ornithine level: 0.096
- Log2 fold change in N-acetyl-glutamate level: -0.170
- Log2 fold change in N-acetyl-glutamine level: -0.082
- Log2 fold change in N-carbamoyl-L-aspartate level: 3.058
- Log2 fold change in NAD+ level: -0.186
- Log2 fold change in NADP+ level: -0.065
- Log2 fold change in NADPH level: -0.700
- Log2 fold change in Octulose 8/1P level: -0.033
- Log2 fold change in Octulose Bisphosphate level: -0.267
- Log2 fold change in PD level: 0.177
- Log2 fold change in PE level: 0.343
- Log2 fold change in PEE level: -0.149
- Log2 fold change in PEEK level: 0.046
- Log2 fold change in PVNF level: -0.949
- Log2 fold change in Pyroglutamic acid level: -0.555
- Log2 fold change in Ribose-5-phosphate level: -0.276
- Log2 fold change in S-adenosyl-L-homocysteine level: -0.313
- Log2 fold change in Sedoheptulose bisphosphate level: -0.304
- Log2 fold change in UDP level: -0.826
- Log2 fold change in UDP-D-glucose level: -0.168
- Log2 fold change in UDP-D-glucuronate level: -0.164
- Log2 fold change in UDP-N-acetyl-glucosamine level: -0.499
- Log2 fold change in UMP level: -0.377
- Log2 fold change in a-ketoglutarate level: -0.00422
- Log2 fold change in acetyl-CoA level: -0.783
- Log2 fold change in acetyl-aspartate level: -0.358
- Log2 fold change in alanine/sarcosine level: -0.389
- Log2 fold change in arginine level: -0.197
- Log2 fold change in asparagine level: -0.111
- Log2 fold change in aspartate level: -0.858
- Log2 fold change in coenzyme A level: -0.813
- Log2 fold change in cyclic-AMP level: -0.306
- Log2 fold change in cytidine level: -0.308
- Log2 fold change in dCDP level: 0.078
- Log2 fold change in dCMP level: 0.286
- Log2 fold change in dCTP level: -0.396
- Log2 fold change in dGDP/ADP level: -0.020
- Log2 fold change in dGMP/AMP level: 0.757
- Log2 fold change in dTDP level: -0.522
- Log2 fold change in dTMP level: 0.797
- Log2 fold change in dTTP level: -1.044
- Log2 fold change in dihydroorotate level: 4.182
- Log2 fold change in folate level: -0.409
- Log2 fold change in fructose-1-6-bisphosphate level: -0.330
- Log2 fold change in fructose-6-phosphate level: -0.341
- Log2 fold change in fumarate level: -0.377
- Log2 fold change in glutamate level: 0.025
- Log2 fold change in glutamine level: -0.211
- Log2 fold change in glutathione disulfide level: -0.238
- Log2 fold change in glutathione level: -0.129
- Log2 fold change in guanosine level: -0.368
- Log2 fold change in histidine level: -0.281
- Log2 fold change in hydroxyproline/Aminolevulinate level: -0.316
- Log2 fold change in hypoxanthine level: -0.322
- Log2 fold change in inosine level: -0.490
- Log2 fold change in isoleucine level: -0.515
- Log2 fold change in lysine level: 0.274
- Log2 fold change in malate level: -0.381
- Log2 fold change in maleic acid level: -0.226
- Log2 fold change in methionine level: -0.384
- Log2 fold change in nicotinate level: -0.467
- Log2 fold change in orotate level: 0.364
- Log2 fold change in pantothenate level: -0.383
- Log2 fold change in phenylalanine level: -0.490
- Log2 fold change in phosphoenolpyruvate level: -0.226
- Log2 fold change in proline level: -0.424
- Log2 fold change in pyruvate level: -0.797
- Log2 fold change in ribose level: -0.358
- Log2 fold change in ribose-phosphate level: -0.355
- Log2 fold change in ribulose-5-phosphate level: -0.161
- Log2 fold change in serine level: -0.067
- Log2 fold change in sn-glycerol-3-phosphate level: 0.064
- Log2 fold change in succinate/Methylmalonic acid level: -0.878
- Log2 fold change in thiamine level: -0.352
- Log2 fold change in threonine/homoserine level: -0.156
- Log2 fold change in tryptophan level: -0.225
- Log2 fold change in tyrosine level: -0.394
- Log2 fold change in xanthosine level: -0.306
- Log2 fold change in xanthosine-5-phosphate level: -0.737
